Test results reported in article PMC12207370, “Macrocyclic Peptide Probes for Immunomodulatory Protein CD59: Potent Modulators of Bacterial Toxin Activity and Antibody‐Dependent Cytotoxicity” (Angewandte Chemie (International Ed. in English), 2025).
Read-outs that look alike come from different tables or passages of the source. Bridge positions count the residues as written; N and C are the ends. Square brackets hold non-standard residues; d marks the D form. Peptide text beside a SMILES is read from it. * marks the point of attachment. X1 = CCCCCCCCCCCCCCCCCOCCOCCOCCOCCOCCOCCOCCOCCOCCOCCOCCOCCOCCC(=O)*

Key:
CD59 = biological target: T1, CD59 (Homo sapiens, UniProt P13987); assay: SPR (Biacore S200) binding to immobilised biotinylated CD59
T1 construct: Recombinant soluble human CD59 with an additional C-terminal cysteine residue
T1 sequence (P13987 26-102 limits assumed): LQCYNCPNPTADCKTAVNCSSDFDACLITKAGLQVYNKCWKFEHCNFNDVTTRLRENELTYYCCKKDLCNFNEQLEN
Text: To identify which of these peptides bound CD59 most tightly, we used a Biacore S200 surface plasmon resonance (SPR) platform to investigate CD59 affinity (Figure 2b), using a known protein binding partner of CD59 (rILYd4) as a benchmark. Four 13‐mer macrocyclic peptides and one 14‐mer macrocyclic peptide were identified with a dissociation constant (K D) lower than that of rILYd4. Considering their fourfold lower molecular weight, these peptides bind with up to 19‐fold greater efficiency compared to rILYd4 (Figure 2b).
Equipment: SPR analysis was performed on a Cytiva Biacore S200. All buffers were prepared using ultra-pure water from a Millipore Elix Q-Gard purification system. Solutions and buffers were filtered with a 0.22 μm filter and degassed prior to use. The assays were performed on Series S streptavidin (SA) sensor chip (Cytiva). PBS-P+ buffer 10X (0.2 M phosphate buffer with 27 mM KCl, 1.37 M NaCl and 0.5% Surfactant P20 (Tween 20)) was used for the preparation of the assay running buffer (PBS-P+ 1X).
Immobilisation of CD59-biotin: Biotinylated CD59 was immobilised on the surface of a SA chip by non-covalent capture (biotin streptavidin interaction) as per the manufacturer’s instructions. The system was initially primed with running buffer and normalised using BIAnormalizing solution (70% (w/w) glycerol) (Cytiva). Before immobilising the protein, the surface was conditioned with three consecutive one-minute injections of 1 M NaCl in 50 mM NaOH. Biotinylated CD59 (0.5 µg/mL in running buffer) was flowed over the protein (active) channel for different contact times to achieve different immobilisation levels (600–1200 RU). After each protein injection, the needle and injection loop were washed using 50% isopropanol in 1 M NaCl and 50 mM NaOH. A reference channel was prepared by similar treatment; however, running buffer alone rather than CD59-biotin in running buffer was flowed over the chip the same way.
Interaction analysis: Multicycle kinetic and affinity approach was used for the analysis of peptides interactions with CD59. Two-fold serial dilutions of each peptide were prepared in running buffer and were flowed over both the ligand and reference channel using a flow rate (30 μL/min) at 25 °C. A zero concentration was added to each analyte series and three cycles of buffer were run between analytes to restore the baseline. The obtained sensorgrams were analysed using the embedded Biacore S200 Evaluation software. The data were normalised by subtracting RU values of the reference channel and zero concentration of the analyte series. Kinetic rate constants (kon and koff) were determined by fitting the normalised data using the built-in Kinetic analysis model (non-linear regression with a 1:1 Langmuir binding model), KD values were then calculated from the two rate constants ([…]). The KD values were determined again by fitting the normalised data using the built-in Affinity analysis model (1:1 Langmuir binding model).

[1] = system: antibody-sensitized human erythrocytes; assay: Enhancement of CDC lysis assay (complement dependent cytotoxicity) in antibody-sensitized erythrocytes; assay type: cell-based
Procedure: Figure 5 CP‐06 and optimized analogues control CD59 activity in cellular assays. a) ILY lysis assay. SK‐BR‐3 cells were treated with CP‐06 (n = 4) or CP‐06[W3A] (n = 2), then with Sytox green dye and ILY ([…]). The plate was imaged immediately with the IncuCyte S3 Live Cell Analysis System and then every hour up to 14 h. The linear phase of lysis was taken from each well, and linear regression was performed to extract individual slope values, which were then normalized to maximum lysis rate (Sytox and ILY) vs. 0% lysis (Sytox only) within each plate. […] Human erythrocytes were sensitized with 1% w/v anti‐human erythrocyte Ab with 5% v/v human serum in the presence of a serial dilution of CP‐06C18 (black bars) or CP‐06scrmb‐C18 (red bars) Percent lysis enhancement was calculated by normalization to 0% enhancement (buffer well) and plotted as the mean of three biological replicates ± SEM. […]
Enhancement of CDC lysis assay: A 50% (v/v) erythrocyte stock suspension was prepared as described above. […] The following controls were included: (1) a positive control which contained Tween-20 (Cf = 1%), (2) a negative control well that contained PBS, and (3) a vehicle only well that contained PBS without erythrocytes to subtract the absorbance of the vehicle. […]

[2] = Solubility and aggregation behaviour of hit peptides (stated in words); assay type: physicochemical
[3] = Ala scan of CP-06, SPR, n = 1, read-out: KD

CC(C)[C@@H]1NC(=O)[C@H](CO)NC(=O)[C@H](CO)NC(=O)[C@H](CCCNC(=N)N)NC(=O)[C@H](CC(N)=O)NC(=O)CNC(=O)[C@H](C)NC(=O)[C@H]([C@@H](C)O)NC(=O)[C@H](Cc2c[nH]c3ccccc23)NC(=O)[C@H](CO)NC(=O)[C@@H](Cc2ccc(O)cc2)NC(=O)CSC[C@@H](C(N)=O)NC(=O)CNC(=O)[C@H](CCCNC(=N)N)NC1=O [CP-06-W5A] (HELM PEPTIDE1{[O=C(C[*:3])[*:2]].[dY].S.W.T.A.G.N.R.S.S.V.R.G.C.[am]}$PEPTIDE1,PEPTIDE1,1:R3-15:R3$$$V2.0)
Kd (CD59; [3]): 207 nM

CC(C)[C@@H]1NC(=O)[C@H](CO)NC(=O)[C@H](CO)NC(=O)[C@H](CCCNC(=N)N)NC(=O)[C@H](CC(N)=O)NC(=O)CNC(=O)[C@H](Cc2c[nH]c3ccccc23)NC(=O)[C@H]([C@@H](C)O)NC(=O)[C@H](Cc2c[nH]c3ccccc23)NC(=O)[C@H](CO)NC(=O)[C@H](C)NC(=O)CSC[C@@H](C(N)=O)NC(=O)CNC(=O)[C@H](CCCNC(=N)N)NC1=O [CP-06-d-Y1A] (HELM PEPTIDE1{[O=C(C[*:3])[*:2]].A.S.W.T.W.G.N.R.S.S.V.R.G.C.[am]}$PEPTIDE1,PEPTIDE1,1:R3-15:R3$$$V2.0)
Kd (CD59; [3]): 668 nM
Kd (CD59; Ala scan of CP-06, SPR, n = 1, read-out: PKD (converted)): 676 nM
fold decrease in KD (fold loss in binding affinity) (CD59; Ala scan vs CP-06, SPR, n = 1, Figure 3b and text): ~60 fold
Fold Change (CD59; fold decrease in KD vs CP-06, Ala scan): 61

CCCCCCCCCCCCCCCCCOCCOCCOCCOCCOCCOCCOCCOCCOCCOCCOCCOCCOCCC(=O)NCCCC[C@H](NC(=O)CNC(=O)[C@@H]1CSCC(=O)N[C@H](Cc2ccc(O)cc2)C(=O)N[C@@H](CO)C(=O)N[C@@H](Cc2c[nH]c3ccccc23)C(=O)N[C@@H]([C@@H](C)O)C(=O)N[C@@H](Cc2c[nH]c3ccccc23)C(=O)NCC(=O)N[C@@H](CC(N)=O)C(=O)N[C@@H](CCCNC(=N)N)C(=O)N[C@@H](CO)C(=O)N[C@@H](CO)C(=O)N[C@@H](C(C)C)C(=O)N[C@@H](CCCNC(=N)N)C(=O)NCC(=O)N1)C(=O)NCC(N)=O [CP-06C18] ({CH2CO}-[dY]SWTWGNRSSVRGCGK(X1)G-NH2; thioether N-14)
enhancement of mAb-mediated CDC (in words) ([1]; anti-RBC antibody, 5% human serum): enhanced mAb‐mediated CDC in a dose‐dependent manner
lysis in the absence of anti-RBC (in words) ([1]; no anti-RBC antibody, Figure S4): Neither peptide caused lysis above background

CC(C)[C@@H]1NC(=O)[C@H](CO)NC(=O)[C@H](CO)NC(=O)[C@H](CCCNC(=N)N)NC(=O)[C@H](CC(N)=O)NC(=O)CNC(=O)[C@H](Cc2c[nH]c3ccccc23)NC(=O)[C@H]([C@@H](C)O)NC(=O)[C@H](Cc2c[nH]c3ccccc23)NC(=O)[C@H](CO)NC(=O)[C@@H](Cc2ccc(O)cc2)NC(=O)CSC[C@@H](C(N)=O)NC(=O)CNC(=O)[C@H](CCCNC(=N)N)NC1=O [CP-06] (HELM PEPTIDE1{[O=C(C[*:3])[*:2]].[dY].S.W.T.W.G.N.R.S.S.V.R.G.C.[am]}$PEPTIDE1,PEPTIDE1,1:R3-15:R3$$$V2.0)
koff (CD59; SPR, immobilized CD59, read-out: Koff (dissociation rate constant)): 0.0204 s⁻¹
kon (CD59; SPR, immobilized CD59, read-out: Kon (association rate constant)): 1.86e+06 M⁻¹ s⁻¹
solubility (in words) [2]: good solubility

C[C@@H]1NC(=O)[C@H](CO)NC(=O)[C@@H](Cc2ccc(O)cc2)NC(=O)CSC[C@@H](C(N)=O)NC(=O)[C@H](Cc2ccc(O)cc2)NC(=O)[C@H](Cc2ccc(O)cc2)NC(=O)[C@H](CCC(N)=O)NC(=O)[C@H]([C@@H](C)O)NC(=O)[C@H](CCC(N)=O)NC(=O)[C@H](CCCNC(=N)N)NC(=O)[C@H](CC(N)=O)NC(=O)CNC(=O)[C@H](Cc2c[nH]c3ccccc23)NC1=O [CP-13] (HELM PEPTIDE1{[O=C(C[*:3])[*:2]].[dY].S.A.W.G.N.R.Q.T.Q.Y.Y.C.[am]}$PEPTIDE1,PEPTIDE1,1:R3-14:R3$$$V2.0)
Kd (CD59; SPR, immobilized CD59, average of three technical replicates ± SEM, read-out: KD (nM) ± SEM): 10.8 ± 0.7 nM
